Common to all, as to settings: 24 h
One experiment has as its system E. coli ATCC (25922). Kind of experiment: MIC, E. coli ATCC 25922. It is filed as cell-based.
A further experiment deals with S. aureus ATCC(13709). Kind of experiment: MIC, S. aureus ATCC 13709. It is filed as cell-based.
Another experiment deals with P. aurginosa ATCC(25416). Kind of experiment: MIC, P. aurginosa ATCC 25416. It is filed as cell-based.
In a further experiment the test system is P. aurginosa ATCC(29248). Kind of experiment: MIC, P. aurginosa ATCC 29248. It is filed as cell-based.
Experiment [1] concerns K. pneumoniae ATCC (10031). Kind of experiment: MIC, K. pneumoniae ATCC 10031. It is filed as cell-based.
A further experiment has as its system P. vulgaris ATCC(8427). The protocol: The MIC assays are carried out in 150 μL volume in duplicate in 96-well clear flat-bottom plates. The bacterial suspension from an overnight culture growth in appropriate medium is added to a solution of test compound in 4% DMSO in water. Final bacterial inoculum is approximately 10^5-10^6 CFU/well. […] Both ampicillin and tetracycline are used as antibiotic-positive controls in each screening assay for S. pyogenes, E. coli imp-, E. coli, S. aureus, E. faecalis, K. pneumoniae and P. vulgaris. Ciprofloxacin is used as an antibiotic positive control in each screening assay for P. aeruginosa.
The following compounds were prepared using methods illustrated in the previous examples. The compounds were also examined in standard bacterial assays against E. Coli, S. Aureus, P. aurginosa, K. pneumoniae, P. vulgaris, and A. baumannii to determine activities. Each of the bacterial cultures that are available from ATCC (www.atcc.org) is identified by its ATCC number. A. baumannii is gentamicin sensitive Acinetobacter baumannii #2 from Walter Reed.

For experiment [2], the system named is gentamicin sensitive Acinetobacter baumannii #2 from Walter Reed. Nature of the experiment: MIC, A. baumannii WReed 2. It is filed as cell-based.

Take `NCC1OC(OC2C(CO)OC(OC3C(O)C(N)CC(N)C3OC3OC(CO)C(O)C(O)C3N)C2OCCN(CCCc2ccccc2)CCc2ccccc2)C(N)C(O)C1O` (stereo not shown) [IBIS00561969]: in the experiment on E. coli ATCC (25922), the “MIC E. coli ATCC (25922)” value is 10 to 20 µM. The “MIC S. aureus ATCC(13709)” value in the experiment on S. aureus ATCC(13709) lay in the range of 0.6 to 1.2 µM. For the same compound, the “MIC P. aurginosa ATCC(25416)” value in the experiment with P. aurginosa ATCC(25416) fell in the range of 10 to 20 µM. For the same compound, the “MIC P. aurginosa ATCC(29248)” value in the experiment with P. aurginosa ATCC(29248) was greater than 40 µM. Moreover, in experiment [1], the “MIC K. pneumoniae ATCC (10031)” value is 2.5 to 5.0 µM. Further, the “MIC P. vulgaris ATCC(8427)” value in the experiment with P. vulgaris ATCC(8427) fell in the range of 10 to 20 µM. For the same compound, in experiment [2], the “MIC A. baumannii WReed 2” value lay within 10 to 20 µM.

The record behind these values is patent US7943749B2, “Antimicrobial 2-deoxystreptamine compounds” (Isis Pharmaceuticals, Inc., priority 2004, dated 2011).
